Test results published in patent US7267977B2, “Peripheral-type benzodiazepine receptor: a tool for detection, diagnosis, prognosis, and treatment of cancer” (Georgetown University, priority 1998, dated 2007).

Key:
PBR [1] = target: T1, PBR (Homo sapiens, UniProt P30536); experiment: Fluorescent microscopy with compound 4 fluorescent PBR ligand, cultured cells; assay type: cell-based; parameters: endogenous in cells; host or cells: MDA-231, MCF-7 and MCF-7ADR (ADR) human breast cancer cells, whole cells or isolated nuclei; conditions: MDA-231 cells, 100 uM competitor, 1 uM compound 4, 45 min at 37° C.
Procedure: Fluorescent Microscopy with the compound 4 fluorescent PBR Ligand—MA-10, MDA-231, MCF-7, and ADR cells were grown on glass coverslips as previously described [Kozikowski et al. (1997) J. Med. Chem. 40: 2435-2439]. Cells were then washed twice with sterile PBS and incubated for 45 min with 1 uM compound 4, a fluorescent derivative of the PBR ligand FGIN-27, with or without a competing PBR ligand, FGIN-27, at a concentration of 100 uM. After the incubation period, the cells were washed with PBS and examined by fluorescent microscopy using an Olympus BH-2 fluorescence microscope.
Target sequence in this assay (P30536 2-169): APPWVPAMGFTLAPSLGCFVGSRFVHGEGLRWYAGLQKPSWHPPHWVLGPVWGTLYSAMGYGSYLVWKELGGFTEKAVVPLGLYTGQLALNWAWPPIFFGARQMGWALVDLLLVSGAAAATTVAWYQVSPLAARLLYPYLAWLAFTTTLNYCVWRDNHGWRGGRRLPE

[2] = target: T2, peripheral-type benzodiazepine receptor (PBR) (Homo sapiens, UniProt P30536); experiment: [3H]PK11195 radioligand binding to whole cells (Scatchard analysis, competition); conditions: 50 μg protein, [3H]PK11195, Scatchard plot
T2 construct: Cells were scraped from 150 mm culture dishes into 5 ml phosphate buffered saline (PBS); endogenous in cells; host or cells: MDA-231, MCF-7 and MCF-7ADR (ADR) human breast cancer cells, whole cells or isolated nuclei
T2 sequence (P30536 2-169): as above
Procedure: (§1) Radioligand Binding Assays—Cells were scraped from 150 mm culture dishes into 5 ml phosphate buffered saline (PBS), dispersed by trituration, and centrifuged at 500×g for 15 min. Cell pellets were resuspended in PBS and assayed for protein concentration. […] Scatchard plots were analyzed by the LIGAND program [Munson, (1980) Anal. Biochem. 107:220]. […] IC50 estimation was performed using the LIGAND program (Munson, 1980, supra).

[3] = target: T2, peripheral-type benzodiazepine receptor (PBR); experiment: [3H]PK11195 binding to isolated nuclei (Scatchard analysis); conditions: pmol/mg nuclear protein
Procedure: as §1
(§2) Nuclear Uptake of ^3H-Cholesterol—Nuclei were isolated from MDA-231, MCF-7, and as described by Elango et al (1997). […] Samples were then centrifuged at 500×g for 30 min and pellets were washed in […] ice-cold PBS. After a second centrifugation at 500×g for 30 min, 200 ul 1.0 N NaOH was then added to the pellets and incubated overnight at 37° C. After incubation, 200 ul 1.0 N HCl was added and samples were vigorously vortexed. 3 ml scintillation cocktail (Eco-Lite) was then added prior to reading radioactivity on a Wallac 1409 Liquid Scintillation Counter.

MDA-231 nuclei = experiment: Nuclear uptake of 3H-cholesterol, MDA-231 nuclei; assay type: biochemical, human; conditions: -8 to -6M PK11195, MDA-231 nuclei, 60 min at 37° C.
Procedure: as §2

MCF-7 nuclei = experiment: Nuclear uptake of 3H-cholesterol, MCF-7 nuclei; assay type: biochemical, human; conditions: increasing concentrations of PK11195
Procedure: as §2

MDA-231 cells = experiment: BrdU cell proliferation ELISA; assay type: cell-based, human; conditions: for stimulation of MDA-231 cell proliferation: 48 h
Procedure: BrdU Cell Proliferation Assays and BrdU-labeling of MDA-231 Cells—MDA-231 cells were plated on 96-well plates (Corning) at a concentration of approximately 10,000 cells/well (24 h incubation) or approximately 5,000 cells/well (48 h incubation) in DMEM supplemented with 0.1% FBS.

PBR [4] = target: T1, PBR; experiment: Compound 4 fluorescence labeling of human breast tissue biopsies; parameters: Paraffin embedded sections of normal breast tissue; from tissue; host or cells: human breast biopsies (normal tissue and aggressive carcinoma), Lombardi Cancer Center; conditions: 1000 fold excess of competitive ligand
Target sequence in this assay (P30536 whole entry): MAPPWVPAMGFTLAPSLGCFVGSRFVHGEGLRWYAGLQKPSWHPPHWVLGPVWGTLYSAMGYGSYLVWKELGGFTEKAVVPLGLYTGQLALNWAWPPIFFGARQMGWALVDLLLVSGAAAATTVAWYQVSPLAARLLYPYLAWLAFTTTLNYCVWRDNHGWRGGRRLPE
Procedure: PBR ligand binding activity was determined using the fluorescent PBR derivative compound 4 [Munson, 1980, supra]
In some samples, the hematoxylin counterstaining was omitted in order to confirm the PBR positive staining of the nuclei of breast carcinoma cells (b). […] In this experiment an FITC-coupled secondary antibody was used to localize the immunoreactive PBR protein. […] PBR ligand binding activity was also determined in the aggressive breast carcinomas using the fluorescent PBR derivative compound 4 (FIG. 10e).

Compound	displacement of compound 4 fluorescent binding (PBR [1])	Bmax ([2]; ADR (MCF-7ADR) cells)	Bmax ([2]; MDA-231 cells)	Bmax ([3]; nuclei isolated from MCF-7 cells)	Bmax ([3]; nuclei isolated from MDA-231 cells)	decrease in the amount of cholesterol uptake (MDA-231 nuclei)	response of cholesterol uptake to PK11195 dose-response (MCF-7 nuclei)	effect on MDA-231 cell proliferation (MDA-231 cells; 24 h, −10 and −9M)	stimulation of MDA-231 cell proliferation (MDA-231 cells; any of the micromolar concentrations)	stimulation of MDA-231 cell proliferation (MDA-231 cells; −8M)	Emax (MDA-231 cells; Homo sapiens, MDA-MB-231, 24 h, −5M, read-out: maximal stimulation of MDA-231 cell proliferation)	toxicity to MDA-231 cells (MDA-231 cells; −4M)	displacement of compound 4 fluorescence (PBR [4]; aggressive breast carcinoma biopsies)	displacement of compound 4 fluorescence (PBR [4]; normal human breast tissue)
CCCCCCN(CCCCCC)C(=O)Cc1c(-c2ccc(F)cc2)[nH]c2ccccc12 [FGIN-27]	displacement of fluorescent binding	–	–	–	–	–	–	–	–	–	–	–	–	–
CCC(C)N(C)C(=O)c1cc2ccccc2c(-c2ccccc2Cl)n1 (centres unmarked) [PK11195]	–	1.3±0.23 pmol/mg protein	8.7±1.4 pmol/mg protein	0.4±0.2 pmol/mg protein	6.9±4.8 pmol/mg protein	~20%	failed to respond	no effect	no stimulation	40%	40%	toxic concentration	completely displaced the fluorescence	completely displaced the fluorescence
